Tests used:
Format in all cases: in vivo
[1] = system: velvetleaf (Abutilon theophrasti); assay: Test B pre-/postemergence plant response; details: 1000 g ai/ha, 0 to 100 scale (0 no effect, 100 complete control)
Description: (§1) Seeds of plant species selected from bamyardgrass (Echinochloa crus-galli), kochia (Kochia scoparia), ragweed (common ragweed, Ambrosia elatior), Italian ryegrass (Lolium multiflorum), large (Lg) crabgrass (Digitaria sanguinalis), giant foxtail (Setaria faberii), momingglory (Ipomoea spp.), pigweed (Amaranthus retroflexus), velvetleaf (Abutilon theophrasti), wheat (Triticum aestivum), and corn (Zea mays) were planted into a blend of loam soil and sand and treated preemergence with a directed soil spray using test chemicals formulated in a non-phytotoxic solvent mixture which included a surfactant. At the same time, plants selected from these crop and weed species and also blackgrass (Alopecurus myosuroides), and galium (catchweed bedstraw, Galium aparine) were planted in pots containing the same blend of loam soil and sand and treated with postemergence applications of test chemicals formulated in the same manner. Plants ranged in height from 2 to 10 cm and were in the one- to two-leaf stage for the postemergence treatment. Treated plants and untreated controls were maintained in a greenhouse for approximately 10 days, after which time all treated plants were compared to untreated controls and visually evaluated for injury. Plant response ratings, summarized in Table B, are based on a 0 to 100 scale where 0 is no effect and 100 is complete control. A dash (-) response means no test result.

[2] = system: large (Lg) crabgrass (Digitaria sanguinalis); assay: Test B pre-/postemergence plant response; details: 1000 g ai/ha, 0 to 100 scale (0 no effect, 100 complete control)
Description: as §1

corn (Zea mays) = assay: Test B pre-/postemergence plant response; details: 0 to 100 scale (0 no effect, 100 complete control)
Description: as §1

[3] = system: barnyardgrass (Echinochloa crus-galli); assay: Test B pre-/postemergence plant response
Description: as §1

[4] = system: morningglory (Ipomoea spp.); assay: Test B pre-/postemergence plant response; details: 1000 g ai/ha, 0 to 100 scale (0 no effect, 100 complete control)
Description: as §1

[5] = system: wheat (Triticum aestivum); assay: Test B pre-/postemergence plant response; details: 0 to 100 scale (0 no effect, 100 complete control)
Description: as §1

[6] = system: giant foxtail (Setaria faberii); assay: Test B pre-/postemergence plant response
Description: as §1

[7] = system: pigweed (Amaranthus retroflexus); assay: Test B pre-/postemergence plant response
Description: as §1

[8] = system: galium (catchweed bedstraw, Galium aparine); assay: Test B postemergence plant response; details: Postemergence, 500 g ai/ha; 0 to 100 scale (0 no effect, 100 complete control)
Description: (§2) At the same time, plants selected from these crop and weed species and also blackgrass (Alopecurus myosuroides), and galium (catchweed bedstraw, Galium aparine) were planted in pots containing the same blend of loam soil and sand and treated with postemergence applications of test chemicals formulated in the same manner. Plants ranged in height from 2 to 10 cm and were in the one- to two-leaf stage for the postemergence treatment. Treated plants and untreated controls were maintained in a greenhouse for approximately 10 days, after which time all treated plants were compared to untreated controls and visually evaluated for injury. Plant response ratings, summarized in Table B, are based on a 0 to 100 scale where 0 is no effect and 100 is complete control. A dash (-) response means no test result.

[9] = system: blackgrass (Alopecurus myosuroides); assay: Test B postemergence plant response; details: Postemergence, 500 g ai/ha; 0 to 100 scale (0 no effect, 100 complete control)
Description: as §2

[10] = system: ragweed (common ragweed, Ambrosia elatior); assay: Test B pre-/postemergence plant response; details: 500 g ai/ha
Description: as §1

kochia (Kochia scoparia) = assay: Test B pre-/postemergence plant response; details: 500 g ai/ha
Description: as §1

[11] = system: Italian ryegrass (Lolium multiflorum); assay: Test B pre-/postemergence plant response; details: 500 g ai/ha
Description: as §1

[12] = Postemergence, 1000 g ai/ha, 0 to 100 scale (0 no effect, 100 complete control)
[13] = Preemergence, 1000 g ai/ha, 0 to 100 scale (0 no effect, 100 complete control)
[14] = Postemergence, 0 to 100 scale (0 no effect, 100 complete control)
[15] = Preemergence, 0 to 100 scale where 0 is no effect and 100 is complete control
[16] = Postemergence, 500 g ai/ha, 0 to 100 scale (0 no effect, 100 complete control)
[17] = Preemergence, 500 g ai/ha, 0 to 100 scale where 0 is no effect and 100 is complete control

SMILES	Plant response rating, Velvetleaf ([1]; Postemergence)	Plant response rating, Velvetleaf ([1]; Preemergence)	Plant response rating, Crabgrass, Large ([2]; Postemergence)	Plant response rating, Crabgrass, Large ([2]; Preemergence)	Plant response rating, Corn (corn (Zea mays); Postemergence, 1000 g ai/ha)	Plant response rating, Corn (corn (Zea mays); Preemergence, 1000 g ai/ha)	Plant response rating, Barnyardgrass [3, 12]	Plant response rating, Barnyardgrass [3, 13]	Plant response rating, Morningglory ([4]; Postemergence)	Plant response rating, Morningglory ([4]; Preemergence)	Plant response rating, Wheat ([5]; Postemergence, 1000 g ai/ha)	Plant response rating, Wheat ([5]; Preemergence, 1000 g ai/ha)	Plant response rating, Foxtail, Giant [6, 12]	Plant response rating, Foxtail, Giant [6, 13]	Plant response rating, Pigweed [7, 12]	Plant response rating, Pigweed [7, 13]	other results
CN(C)c1ccc(-c2ccccc2Oc2ncc(Cl)cn2)cn1 [Compound 2]	50	20	0	10	0	0	0	0	40	0	0	0	0	10	70	100	
Clc1cnc(Oc2ccccc2-c2ncc(Cl)cn2)nc1 [Compound 3]	100	90	10	40	10	0	50	60	60	0	10	0	20	70	70	50	
Brc1cnc(Oc2ccccc2-c2nnco2)nc1 [Compound 5]	30	20	0	0	0	0	20	0	20	0	0	0	0	0	70	90	
Clc1cnc(Oc2ccccc2-c2nnco2)nc1 [Compound 6]	30	20	20	0	0	0	0	0	20	0	0	0	0	0	70	70	
ON=Cc1cc(-c2ccccc2Oc2ncc(Cl)cn2)no1 [Compound 37]																	Plant response rating, Galium [8]: 0; Plant response rating, Blackgrass [9]: 0; Plant response rating, Ragweed [10, 14]: 0; Plant response rating, Ragweed [10, 15]: 0; Plant response rating, Kochia (kochia (Kochia scoparia); [14]): 0; Plant response rating, Kochia (kochia (Kochia scoparia); [15]): 0; Plant response rating, Corn (corn (Zea mays); Postemergence, 500 g ai/ha): 0; Plant response rating, Barnyardgrass [3, 16]: 0; Plant response rating, Barnyardgrass [3, 17]: 0; Plant response rating, Wheat ([5]; Postemergence, 500 g ai/ha): 0; Plant response rating, Foxtail, Giant [6, 16]: 10; Plant response rating, Foxtail, Giant [6, 17]: 0; Plant response rating, Ryegrass, Italian [11, 14]: 0; Plant response rating, Ryegrass, Italian [11, 15]: 0; Plant response rating, Pigweed [7, 16]: 20; Plant response rating, Pigweed [7, 17]: 40

Reference: patent US10131652B2, “Pyrimidinyloxy benzene derivatives as herbicides” (E. I. DU PONT DE NEMOURS AND COMPANY, priority 2014, dated 2018)
